Where two headings read alike, the source gives them in different places.

Results on two molecules are retold here after patent US8242203B2, “Covalently attached nile blue derivatives for optical sensors” (priority 2005, dated 2012).

For data set [1] the following is noted: comparison value, cited from earlier work.
The nature of data set [2]: Leaching of chromoionophore from ISE membrane during conditioning and measurement. Particulars: conditioning in contact with buffer and measurements. The format is physicochemical. On the procedure:
ISE Membrane Preparation and Measurements. ISE membranes were prepared by dissolving chromoionophore (10 mmol/kg), NaTFPB (2 mmol/kg), PVC and plasticizer (DOS or NPOE) to give a total cocktail mass of 140 mg in 1.5 mL of THF. The cocktail of the membrane with grafted chromoionophore contained 2 mmol/kg NaTFPB, 10 wt % MMA-DMA polymer with grafted indicators, PVC and plasticizer (DOS or NPOE). Cocktails were poured into glass rings (2.2 cm i.d.) affixed onto glass microscope slides.
The solvent was evaporated overnight to give a transparent membrane. The parent membranes were then conditioned for at least 12 hours in pH buffered solutions. For pH titrations, buffer solutions are 10 mM citric acid and 10 mM boric acid with the indicated concentrations of NaCl (either 10 mM or 0.1 mM) adjusted to pH 1.5 by 1 M standard HCl, or 10 mM phosphate buffer solution with NaCl as background. The solution was titrated with a 0.1 M standard NaOH solution and a pH electrode was used to monitor the sample pH. All experimental results given are the average of at least three electrodes, with calculated standard deviations.
The first polymerizable chromoionophore NB1 is a derivative of the highly basic oxazine-dye molecule Nile Blue attached to a acryloyloxybenzoyl group. The pH responses of NB1 based ion selective electrode (“ISE”) membranes were investigated first. […]

What is called pKa is the negative logarithm of the acid dissociation constant. For the molecule `CCCCCCCCCCCCCCCCCC(=O)N=c1cc2oc3cc(N(CC)CC)ccc3nc-2c2ccccc12` [ETH 5294, 9-(diethylamino)-5-octadecanoylimino-5H-benzo[a]phenoxazine], the pKa in data set [1] (PVC-DOS) was 11.4; in data set [1] (PVC-NPOE) it was 14.8.

As for `C=CC(=O)Oc1ccc(C(=O)/N=c2/cc3oc4cc(N(CC)CC)ccc4nc-3c3ccccc23)cc1` [NB1], in data set [2], the “leaching of the dye from the ISE membrane” value is on record as “found to leach from the membrane”.
